Holding throughout (type): in vivo
In test [1] the test system is Arabidopsis Col-0 seedlings. The experiment in a line: Arabidopsis hypocotyl elongation (growth) assay. Conditions: long day (LD: 16/8 h) conditions. Here is the method: FIG. 1: Left: hypocotyl length of Arabidopsis Col-0 seedlings germinated on solid ½MS medium for 4 days and then transferred for 3 more days to liquid ½MS supplemented with a range of concentrations of A68. Right: primary root length of Arabidopsis Col-0 seedlings grown on solid ½MS medium supplemented with a range of concentrations of A68 for 12 days. FIG. 2: Effects of A68 and its related variants on the Arabidopsis hypocotyl elongation. Arabidopsis seedlings were grown on solid ½MS medium for 4 days and then transferred for 3 more days to liquid ½ MS supplemented with the studied compounds at either 0.5 or 50 μM final concentration. Hypocotyl length is represented relative to that of mock-treated seedlings from the same biological repeats. n>400 seedlings for DMSO and A68 initial hit (control treatments throughout the experiments), n>30 seedlings for the A68 variants. Student's two-sample t-test, *P<0.05, **P<0.01 and ***P<0.001. FIG. 3: Hypocotyl elongation dose-response curves for A68 and three bioactive variants A68-6, A68-8 and A68-53 showing the half-maximum effective concentration EC50. A bioactive compound, herein further designated as A68, was identified by screening a commercial 10,000 compound library (DIVERSet, ChemBridge Corporation) for hypocotyl elongation phenotype at a final concentration of 50 μM in 2% DMSO. […]

Test [2] relates to Arabidopsis Col-0 seedlings. The experiment in a line: Arabidopsis primary root growth / lateral root number. Conditions: long day (LD: 16/8 h) conditions. The text has this:
FIG. 1: Left: hypocotyl length of Arabidopsis Col-0 seedlings germinated on solid ½MS medium for 4 days and then transferred for 3 more days to liquid ½MS supplemented with a range of concentrations of A68. Right: primary root length of Arabidopsis Col-0 seedlings grown on solid ½MS medium supplemented with a range of concentrations of A68 for 12 days. A bioactive compound, herein further designated as A68, was identified by screening a commercial 10,000 compound library (DIVERSet, ChemBridge Corporation) for hypocotyl elongation phenotype at a final concentration of 50 μM in 2% DMSO. A68 promotes hypocotyl elongation, while suppresses primary root growth but increases lateral root number under long day (LD: 16/8 h) conditions (see FIG. 1).

The next test relates to Arabidopsis seedlings. The experiment in a line: Osmotic stress tolerance in Arabidopsis seedlings (sorbitol). The settings on record: low concentrations; ½MS with sorbitol. Here is the method: FIGS. 4A-4D: Effect of A68 and its variant A68-6 on Arabidopsis growth in osmotic stress conditions. The two compounds were tested at 3 different concentrations in ½MS without sucrose supplemented with 100 mM sorbitol. The extent of stress tolerance in presence of the small molecules was estimated by following the rosette size (FIG. 4A) as well as root related parameters, such as the total (FIG. 4B) and main (FIG. 4C) root length and lateral root number (FIG. 4D). Results are presented relative to the mock-treated control (0.005% DMSO). FIGS. 5A-5D: Effect of A68-6 on Arabidopsis growth in osmotic stress conditions. The compound was tested at 3 different concentrations in ½MS without sucrose supplemented with 200 mM sorbitol. The extent of stress tolerance in presence of the small molecules was estimated by following the rosette size (FIG. 5A) as well as root related parameters, such as the total (FIG. 5B) and main (FIG. 5C) root length and lateral root number (FIG. 5D). Results are presented relative to the mock-treated control (0.005% DMSO).

The subject of test [3] is Strawberry, Fragaria ananasa, cv. Elsanta. The experiment in a line: Efficacy trial against frost damage on strawberry (trial 22.RM.SAB.028). The source says: Preparation of the agronomical formulation: compound A68 is suspended in acetone at a concentration of 1 g/l. Further in this example this suspension is designated as 22.SC.040.
Trial setup: Strawberry, Fragaria ananasa, tray plants cv. Elsanta were planted in P13 pots, 1 plant per pot. The used substrate was a standard strawberry-substrate with addition of 180 g Osmocoat/651 substrate. (Osmocoat 18-5-11+4CaO+2MgO Agroblen 3-4 months).
36 plants (6 objects×6 repetitions) were randomly placed on tables with eb-flood system (21 l/2.5 m2 during 10 minutes, 2×/24 hours) in the greenhouse (22° C./10° C. day/night; 50% RH).
Foliar applications were executed in a standardized spraying cabin. A nozzle (Albuz TVI, color green) moved over the plants with a constant speed, simulating a spraying volume of 300l/ha.
At full bloom of the first flower branch, these branches were marked with a plastic strip. The plants were placed on pallets and enter a fridge at 5° C. during night, to decrease warmth in the substrate and chill the plants. The next morning, the plants were moved from the fridge to a freezing container. […]
One day and one week after frost, the flowers on the marked branches were assessed. […]
When the fruits ripen, the ripe fruits were picked. […] Also, the number of fruits were counted and the weight was measured. […]

As to `Cc1cccc(C(=O)Nc2ccc(Oc3ccc4c(c3)C(=O)NC4=O)cc2)c1` [Compound A68, N-(4-((1,3-dioxoisoindolin-5-yl)oxy)phenyl)-3-methylbenzamide], the hypocotyl elongation entry in test [1] was “promotes”. Moreover, in test [2], the lateral root number entry is “increases” and the primary root growth entry is “suppresses”. The “tolerance to mild osmotic stress” value with Arabidopsis seedlings is on record as “enhance tolerance”. Also, in test [3] (A68 suspended in acetone, foliar spray), the “efficacy to decrease frost damage on strawberry” value is given as “clear indications of efficacy”. Also, the optimal dose-rate entry in test [3] (maximum efficacy of the Gauss-curve) is “around 1000 mg/ha”.

These data come from patent US20260223847A1, “Compounds for Increasing Frost Tolerance in Plants” (VIB VZW, priority 2023, published 2026).
